# Literature values as cited in patent publication US6632829B2, “Sulfonamides and derivatives thereof that modulate the activity of endothelin” (Texas Biotechnology Corp., priority 1996, dated 2003).
# Where two headings read alike, the source gives them in different places.
# What was measured:
# ETA receptor = settings: cited from earlier work
# ETB receptors = settings: at concentrations up to 100 μM; cited from earlier work
substance,measurement,setting,value
cyclo(D-Glu-L-Ala-allo-D-Ile-L-Leu-D-Trp) [BE-18257B],IC50,ETA receptor; aortic smooth muscle,1400 nM
same,IC50,ETA receptor; cultured aortic smooth muscle cells,500 nM
same,IC50,ETA receptor; ventricle membranes,800 nM
same,inhibition of binding,ETB receptors,fails to inhibit binding
